The values that follow come from patent US9149513B2, “Method and pharmacological composition for the diagnosis and treatment of male sub-fertility” (PERINESS LTD., priority 2006, dated 2015).

In the test the test system is intracellular sperm cell DNase. As to the kind of experiment: Inhibition of intracellular sperm cell DNase by citrate. Type of test: cell-based. As to conditions: 10 mM citrate, up to 8 hours, activity measured every hour. The method, then:
Sperm cells were subjected to three cycles of freezing and thawing and were then centrifuged for 10 min (27,000 g, 4° C.). […] 0.3 ml of the supernatant was added to 0.6 ml of DNase activity buffer and the mixture was measured in a spectrophotometer at 260 nm against a reference that contained only buffer and medium. Calibration curves were made using a commercial bovine DNase I. Sperm cell internal DNase was measured in Kunitz units. One Kunitz unit is defined as the amount of DNase that produces an increase of 1 O.D. per minute at 260 nm in a 1 cm pathlength at pH 5 at 25° C., in a reaction buffer that contains 5 mM MgSO4x7H2O, 0.1 M NaAcetate pH 5 and 4 mg % Calf thymus DNA. Plasma DNase was measured in Bartoov units. One Bartoov unit (BU) is defined as the amount of enzyme that produces a ΔA260 of 0.001 per min in 1 cm pathlength at pH 7.5 at 25° C., in a reaction buffer that contains 0.1M Tris, 10 mM CaCl2, 10 mM MnCl2 and 0.05 mg/ml calf thymus DNA.
In order to examine whether the DNase inhibitor citrate can inhibit intracellular sperm cell DNase, sperm cells were incubated with or without 10 mM citrate for up to 8 hours. The intracellular DNase activity was measured every hour and the sum of the DNase activity was calculated.

Take `O=C(O)CC(O)(CC(=O)O)C(=O)O` [citrate]: the “sum of intracellular DNase activity, % of control sperm cells” value was 43%.
